Reference: ChEMBL document CHEMBL1158744, “Leptolide, a new furanocembranolide diterpene from Leptogorgia alba” (J Nat Prod, 2005)

System: Plasmodium falciparum
Experiment: Antiplasmodial activity against Plasmodium falciparum W2 after 48 hrs in PicoGreen microfluorimetry
Format: functional, organism-based
Details: W2, 48 h

Structure (SMILES)	IC50 [µM]
C=C(C)[C@H]1CC2=C(C(=O)OC)C=C(O2)[C@H]2O[C@]2(C)C[C@H]2C=C(C(=O)O2)[C@H](OC(C)=O)C1	109
C=C(C)[C@H]1CCC2=C[C@@H](C[C@]3(C)O[C@H]3C3=CC(C=O)=C(C1)O3)OC2=O [PUKALIDE ALDEHYDE]	134
C=C(C)[C@@H]1CCC2=C[C@@H](OC2=O)[C@@H](C(=C)C)C2=CC(C(=O)OC)=C(C1)O2 [DEOXYPSEUDOPTEROLIDE]	50
C=C(C)[C@H]1CC2=C(C(=O)OC)C=C(O2)[C@H]2O[C@]2(C)C[C@@H]2OC(=O)[C@]3(O[C@@H]23)[C@H](OC(C)=O)C1 [LOPHOLIDE]	105
C=C(C)[C@@H]1CC2=C(C=O)C=C(O2)[C@@H]2O[C@@]2(C)C[C@H]2OC(=O)[C@@]3(O[C@H]23)[C@@H](OC(C)=O)C1 [LOPHOTOXIN]	74
